Measured values from PubChem BioAssay AID248 (DTP/NCI, 2004).
Inconclusive results and toxic doses are left out. Cut-off read from the data, not from the text of the source: active = T/C of 150% or more; inactive = T/C below 125%.

Tested on: L1210 leukemia ip in BDF1 mice, survival T/C
Experiment: NCI In Vivo Anticancer Drug Screen. Data for tumor model L1210 Leukemia (intraperitoneal) in B6D2F1 (BDF1) mice
Settings: endpoint: mean survival time, higher = longer survival
Summary of the method: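 Antitumor effect is assessed in tumor-bearing animals. Survival in the compound arm is compared with a vehicle-dosed control arm and expressed as their quotient.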

[1] = dose: 100.0 mg/kg/injection, schedule: Q04DX003 (ip), vehicle: Klucel (hydroxypropylcellulose) (HPC)
[2] = dose: 200.0 mg/kg/injection, schedule: Q04DX003 (ip), vehicle: Klucel (hydroxypropylcellulose) (HPC)
[3] = dose: 400.0 mg/kg/injection, schedule: Q04DX003 (ip), vehicle: Klucel (hydroxypropylcellulose) (HPC)
[4] = dose: 100.0 mg/kg/injection, schedule: Q01DX001 (ip), vehicle: other
[5] = dose: 200.0 mg/kg/injection, schedule: Q01DX001 (ip), vehicle: other
[6] = dose: 400.0 mg/kg/injection, schedule: Q01DX001 (ip), vehicle: other
[7] = dose: 100.0 mg/kg/injection, schedule: Q01DX009 (ip), vehicle: saline with Tween-80
[8] = dose: 200.0 mg/kg/injection, schedule: Q01DX009 (ip), vehicle: saline with Tween-80
[9] = dose: 400.0 mg/kg/injection, schedule: Q01DX009 (ip), vehicle: saline with Tween-80
[10] = dose: 100.0 mg/kg/injection, schedule: Q04DX003 (ip), vehicle: saline with Tween-80
[11] = dose: 200.0 mg/kg/injection, schedule: Q04DX003 (ip), vehicle: saline with Tween-80
[12] = dose: 400.0 mg/kg/injection, schedule: Q04DX003 (ip), vehicle: saline with Tween-80
[13] = dose: 100.0 mg/kg/injection, schedule: Q04DX003 (ip), vehicle: acetone

Measured: T/C

CCCCCC1CCCC1
inactive: dose: 100.0 mg/kg/injection, schedule: Q04DX002 (ip), vehicle: saline 94 % of control | dose: 200.0 mg/kg/injection, schedule: Q04DX002 (ip), vehicle: saline 106 % of control | dose: 400.0 mg/kg/injection, schedule: Q04DX002 (ip), vehicle: saline 103 % of control

C(=C\c1ccccc1)/Cc1ccccc1
inactive: dose: 100.0 mg/kg/injection, schedule: Q01DX009 (ip), vehicle: Klucel (hydroxypropylcellulose) (HPC) 97 % of control | [1] 101 % of control | dose: 200.0 mg/kg/injection, schedule: Q01DX009 (ip), vehicle: Klucel (hydroxypropylcellulose) (HPC) 95 % of control | [2] 111 % of control | dose: 400.0 mg/kg/injection, schedule: Q01DX009 (ip), vehicle: Klucel (hydroxypropylcellulose) (HPC) 103 % of control | [3] 92 % of control

COC(=O)c1c(C)cc(OC(=O)c2c(C)cc(OC)c(C)c2OC)c(C)c1O
inactive: dose: 50.0 mg/kg/injection, schedule: Q01DX001 (ip), vehicle: other 103 % of control | [4] 97 % of control | [5] 92 % of control | [6] 92 % of control

C=CCNC(=O)Oc1cccc(NC(=O)N(C)C)c1
inactive: [7] 107 % of control | [8] 109 % of control | [9] 120 % of control

O=C(O)C1(c2ccccc2)SCCS1
inactive: [10] 89 % of control | [11] 96 % of control | [12] 94 % of control

NC(=O)N=Nc1ccccc1
inactive: [4] 105 % of control | [5] 91 % of control | [6] 98 % of control

O=C1C=Cc2ccc3c4c(ccc1c24)C=CC3=O
inactive: [13] 98 % of control | dose: 200.0 mg/kg/injection, schedule: Q04DX003 (ip), vehicle: acetone 91 % of control

CCCNC(=O)Nc1ccc(C)cc1C
inactive: [7] 96 % of control | [10] 97 % of control | [8] 97 % of control | [11] 97 % of control | [9] 100 % of control | [12] 101 % of control

C=CCOC(=O)Nc1cccc(OC(=O)NC(C)(C)C)c1
inactive: [10] 105 % of control | [11] 99 % of control | [12] 98 % of control

S=C(N=Nc1ccccc1)NNc1ccccc1
inactive: dose: 18.8 mg/kg/injection, schedule: Q04DX003 (ip), vehicle: saline with Tween-80 90 % of control | dose: 18.9 mg/kg/injection, schedule: Q01DX009 (ip), vehicle: saline with Tween-80 87 % of control | dose: 30.0 mg/kg/injection, schedule: Q01DX Z (ip), vehicle: carboxymethylcellulose (CMC) 92 % of control | dose: 37.5 mg/kg/injection, schedule: Q01DX009 (ip), vehicle: saline with Tween-80 92 % of control | dose: 37.5 mg/kg/injection, schedule: Q01DX Z (ip), vehicle: carboxymethylcellulose (CMC) 97 % of control | dose: 37.5 mg/kg/injection, schedule: Q04DX003 (ip), vehicle: saline with Tween-80 87 % of control | dose: 45.0 mg/kg/injection, schedule: Q01DX Z (ip), vehicle: carboxymethylcellulose (CMC) 97 % of control | dose: 75.0 mg/kg/injection, schedule: Q01DX009 (ip), vehicle: saline with Tween-80 90 % of control | dose: 75.0 mg/kg/injection, schedule: Q01DX Z (ip), vehicle: carboxymethylcellulose (CMC) 92 % of control | dose: 75.0 mg/kg/injection, schedule: Q04DX003 (ip), vehicle: saline with Tween-80 92 % of control | dose: 150.0 mg/kg/injection, schedule: Q04DX003 (ip), vehicle: saline with Tween-80 88 % of control | dose: 200.0 mg/kg/injection, schedule: Q01DX001 (ip), vehicle: carboxymethylcellulose (CMC) 101 % of control

Cc1ncc(C(O)c2ccc(Cl)cc2)n1Cc1ccccc1 (configuration not stated)
inactive: [1] 100 % of control | [2] 94 % of control | [3] 104 % of control

CCCN(CCC)C(=O)c1cccnc1
inactive: [10] 93 % of control | [11] 96 % of control | [12] 94 % of control

CC(=O)Nc1cccc(C)c1C
inactive: dose: 100.0 mg/kg/injection, schedule: Q04DX002 (ip), vehicle: Klucel (hydroxypropylcellulose) (HPC) 107 % of control | dose: 200.0 mg/kg/injection, schedule: Q04DX002 (ip), vehicle: Klucel (hydroxypropylcellulose) (HPC) 100 % of control | dose: 400.0 mg/kg/injection, schedule: Q04DX002 (ip), vehicle: Klucel (hydroxypropylcellulose) (HPC) 103 % of control

O=C(NCc1ccccc1)Sc1ccccc1
inactive: dose: 87.5 mg/kg/injection, schedule: Q01DX001 (ip), vehicle: Klucel (hydroxypropylcellulose) (HPC) 96 % of control

COc1ccc(/C=C2\SC(=O)NC2=O)cc1
inactive: dose: 25.0 mg/kg/injection, schedule: Q01DX009 (ip), vehicle: saline with Tween-80 91 % of control | dose: 50.0 mg/kg/injection, schedule: Q01DX009 (ip), vehicle: saline with Tween-80 104 % of control | [7] 100 % of control

CC(C)=CCc1c2c(c3occ(-c4ccc(O)c(O)c4)c(=O)c3c1O)C=CC(C)(C)O2
inactive: dose: 50.0 mg/kg/injection, schedule: Q04DX003 (ip), vehicle: Klucel (hydroxypropylcellulose) (HPC) 93 % of control | [1] 100 % of control | [2] 104 % of control

CNC(=S)n1ncnc1NC=O
inactive: [13] 98 % of control

CCCCC(C)C(C#N)(NC(C)=O)C(=O)OCC (configuration not stated)
inactive: dose: 75.0 mg/kg/injection, schedule: Q04DX003 (ip), vehicle: saline 109 % of control | dose: 150.0 mg/kg/injection, schedule: Q04DX003 (ip), vehicle: saline 98 % of control | dose: 300.0 mg/kg/injection, schedule: Q04DX003 (ip), vehicle: saline 91 % of control

O=C(OCC1OC(n2ccc(=S)[nH]c2=O)C(OC(=O)c2ccccc2)C1OC(=O)c1ccccc1)c1ccccc1 (configuration not stated)
inactive: dose: 50.0 mg/kg/injection, schedule: Q01DX001 (ip), vehicle: saline 98 % of control | dose: 100.0 mg/kg/injection, schedule: Q01DX001 (ip), vehicle: saline 95 % of control | dose: 200.0 mg/kg/injection, schedule: Q01DX001 (ip), vehicle: saline 101 % of control | dose: 400.0 mg/kg/injection, schedule: Q01DX001 (ip), vehicle: saline 104 % of control

Cc1ccc(NC(=O)Oc2ccc3ccccc3c2)cc1NC(=O)Oc1ccc2ccccc2c1
inactive: dose: 100.0 mg/kg/injection, schedule: Q01DX009 (ip), vehicle: other 91 % of control | dose: 200.0 mg/kg/injection, schedule: Q01DX009 (ip), vehicle: other 93 % of control | dose: 400.0 mg/kg/injection, schedule: Q01DX009 (ip), vehicle: other 91 % of control
